Assay results published in patent publication US20060099712A1, “Correlation of anti-cancer activity of dyes with redox potentials” (Eastman Kodak Company, priority 2004, published 2006).
In brackets after ≈: the same amount, converted by molar mass. Several values for one entry are separate records, joined by “and”; a condition that tells them apart may be missing. Equal values may be shown once. Read-outs that look alike come from different tables or passages of the source.

Tests used:
[1] = test system: CV-1 Normal Monkey Kidney Epithelial; experiment: Clonogenic dye screening assay, CV-1 cells (IC50); format: cell-based, African green monkey; conditions: for CV (IC50 in the CV-1 cell line): 3 hrs treatment, unit from method b117-118; for IC50: Primates
Excerpt: CX-1 is a cancerous human colon adenocarcinoma cell line. CV-1 is a non-cancerous control, which is a kidney epithelial cell line from an African green monkey. IC50 is the dye concentration at which 50% of the cells are killed. Selectivity or kill ratio is defined as the ratio of […] at IC50 for both CX-1 and CV-1. A ratio with a high number indicates a high selectivity.
The dyes were screened in two cell lines. CX-1 is a human colon adenocarcinoma cell line. CV-1 is a kidney epithelial cell line from an African green monkey. CV-1 was used as a reference because no normal human epithelial cell line is available for clonogenic assay.
In the initial screen, dyes were examined at six different concentrations to generate a dose response curve. An IC50 value, the concentration at which 50% of the cells are killed, was then calculated. Initially, a dye concentration of 1.0 μg/mL was the highest examined for the CX-1 cell line and 0.005 μg/mL was the lower limit. The corresponding limits on the CV-1 cell line were […].
The screening procedure used a response curve that was determined from eight dye concentrations. The upper and lower limits of CX-1 were 0.32 and 0.0015 μg/mL, respectively, and the corresponding revised limits on CV-1 were 3.2 and 0.025 μg/mL. The screening results were reported by assigning an IC50 value to each dye for the CV-1 and CX-1 cell lines. These values will be referred to herein simply as CV and CX. The most desirable result would be to have a dye that was highly toxic to carcinoma cells but nontoxic to ‘normal’ cells. One measure of this type of selectivity is the ratio of the IC50's in the normal cell line to that in the carcinoma line, CV/CX.
Compounds are screened via an in vitro assay. CV-1 and CX-1 cells are seeded into separate assay plates. The plates are treated with varying concentrations of test compounds, rinsed, and colonies allowed to grow. IC50's are determined and drugs evaluated based on their selectivity and toxicity. Assay Steps: • I. Seeding Cells • II. Weighing • III. Preparation of Solution • IV. Treatment • V. Rinsing and Feeding • VI. Fixing • VII. IC50 Determination I. Seeding Cells
The cells should be seeded 16-30 hours before treatment. The media for CV-1 cells is DME+5% calf serum +5% Nuserum. The media for CX-1 cells is RPMI/DME (50/50)+5% calf serum +5% Nuserum.
(c) number of cells based on 2000 CX-1 cells/well and 1000 CV-1 cells/well. NOTE: Always make enough cell suspension for 1 extra plate to allow for volume loss during transfers.
• (a) For CV-1: 256 ug/ml-256 ul of 1 mg/ml stock +744 ul DMSO • (b) For CX-1: 25.6 ug/ml-100 ul of 256 ug/ml+900 ul DMSO IV. Treatment • 1. Each plate is treated with 4 test compounds, one positive control and one negative control. • 2. Serial dilutions of the compounds are made in the following way:
2 multi-well pipetters are used. One is set for 10 ul and one for 200 ul. Each is equipped with 6 tips spaced such that they fit into the 6 rows of a plate. 390 ul of media is added to the first column of each plate. 10 ul each of 4 compound solutions, a positive and a negative control are taken up and put into the first column of wells. The 200 ul pipetter is then placed in the same wells, pipetted up and down 3 times and two 200 ul aliquots are moved to the next column of wells. This column is pipetted up and down 3 times and 400 ul moved to column 3, etc. The final 400 ul excess from column 8 is discarded.
• 3. Label the plates along the front, each row −1 compound. • 4. Incubate the plates at 37° C. for 3 hrs. V. Rinsing • 1. Prepare several bottles of CX-1 and CV-1 media. • 2. Check for precipitate in first column of each plate and note. • 3. Starting with the plates treated first, rinse several plates at a time by aspirating the treatments and refilling each well with 0.5-1.0 ml of the rinse media. Aspirate and refill 2 more times for a total of 3 rinses. • 4.

[2] = test system: CX-1 Human Colon Carcinoma; experiment: Clonogenic dye screening assay, CX-1 cells (IC50); format: cell-based; conditions: for CX (IC50 in the CX-1 cell line): 3 hrs treatment, unit from method b117-118; for CV/CX (selectivity, kill ratio): ratio of IC50 in normal CV-1 line to IC50 in carcinoma CX-1 line; for IC50: Homo sapiens; for CV/C: Table XXI, selectivity ratio, value of 1 where dye inactive; for Selectivity: Table 1, cell line not given, values equal CV/CX of Table II
In short: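 Cells seeded 16-30 h ahead (2000 CX-1 or 1000 CV-1 per well), exposed to serially diluted dyes for 3 h at 37 °C, rinsed three times, then grown into colonies. Eight-point curves spanned 0.32-0.0015 μg/mL (CX-1) and 3.2-0.025 μg/mL (CV-1). IC50 is the concentration killing 50% of cells.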

[3] = CV-1, 3 hrs treatment, colonies after 7-10 days, unit from method, read-out: CV (IC50 in the CV-1 cell line)
[4] = CX-1, 3 hrs treatment, colonies after 7-10 days, unit from method, read-out: CX (IC50 in the CX-1 cell line)
[5] = CV-1, Table XXI, oxathiacarbocyanine nitrogen substituents, CV-1 cells, read-out: CV
[6] = CX-1, Table XXI, oxathiacarbocyanine nitrogen substituents, CX-1 cells, read-out: CX
[7] = CV-1, Table XVI, unsymmetrical dyes, CV-1 cells, read-out: CV
[8] = CX-1, Table XVI, unsymmetrical dyes, CX-1 cells, read-out: CX
[9] = Table XVI, selectivity ratio of IC50 values
[10] = CV-1, read-out: CV (IC50 in the CV-1 cell line)
[11] = CX-1, read-out: CX (IC50 in the CX-1 cell line)

SMILES | IC50 [2, 4] | CV/CX (selectivity, kill ratio) [2] | IC50 [1, 3] | also measured
CCN1/C(=C/C=C/c2oc3ccccc3[n+]2CC)Sc2cccc(-c3ccccc3)c21.[I-] [Dye D-106] | – | 80 | – | CV (IC50 in the CV-1 cell line) ([1]; colonies after 7-10 days): 0.8 µg/mL; CX (IC50 in the CX-1 cell line) ([2]; colonies after 7-10 days): 0.01 µg/mL
CCN1C(=O)/C(=C\C=C2/Oc3ccccc3N2CC)S/C1=N\c1sc2ccccc2[n+]1CC [Dye D-107] | 0.05 µg/mL | 60 | 3 µg/mL | –
CCN1/C(=c2/s/c(=c3\s/c(=C\c4ccc5ccccc5[n+]4CC)n(CC)c3=O)n(CC)c2=O)Sc2ccccc21 [Dye D-108] | 0.045 µg/mL | 71.15 | 3.2 µg/mL | –
C(=C\c1cc[n+]2c3c(cccc13)Sc1ccccc1-2)/C=c1\ccn2c3ccccc3sc3cccc1c3-2 [Dye D-117] | 0.1 µg/mL | 70 | 7 µg/mL | –
CC[n+]1c(/C=C/C=C2\SC=C(C)N2C)oc2ccccc21 [Dye D-120] | 0.01 µg/mL | 500 | 5 µg/mL | –
CCN(CC)CCN1/C(=C/C(C)=C/c2sc3ccccc3[n+]2CCN(CC)CC)Sc2ccccc21 [Dye D-121] | 0.01 µg/mL | 80 | 0.8 µg/mL | –
CCSC(=C\c1oc2ccccc2[n+]1C)/C=C1\Sc2ccccc2N1CC.[I-] [Dye D-127] | – | 60 | – | CV (IC50 in the CV-1 cell line) ([1]; colonies after 7-10 days): 0.3 µg/mL
CCN1/C(=C/C=C/c2oc3ccccc3[n+]2CC)Sc2ccc(O)cc21.[I-] [Dye D-128] | – | 60 | – | CV (IC50 in the CV-1 cell line) ([1]; colonies after 7-10 days): 0.3 µg/mL
CN1/C(=C/c2ccc3ccc4ccccc4c3[n+]2C)Sc2ccccc21 [Dye D-130] | 0.005 µg/mL | 100 | 0.5 µg/mL | –
CC[n+]1c(/C=C/C=C2/c3c(C)ccc(C)c3C(C)(Cc3ccccc3)N2C)sc2ccccc21 [Dye D-132] | 0.007 µg/mL | 430 and 428.57 | 3 µg/mL | IC50 [1, 7]: 3 µg/mL; IC50 [2, 8]: 0.007 µg/mL; Selectivity [2]: 428.57; CV/CX [2, 9]: 428.6
CC[n+]1c(/C=C/C=C2/c3c(C)ccc(C)c3C(C)(Cc3ccccc3)N2C)sc2ccc3ccccc3c21 [Dye D-133] | 0.009 µg/mL | 333.5 | 3 µg/mL | Selectivity [2]: 333.5
CCN1/C(=C/C=C/c2sc3ccccc3[n+]2CC)[Se]c2ccc(OC)cc21 [Dye D-134] | – | 80 | – | IC50 [1, 10]: 0.2 µg/mL; IC50 [2, 11]: 0.0025 µg/mL
CCN1/C(=C/C=C/c2sc3ccccc3[n+]2CC)[Se]c2ccc(Cl)cc21 [Dye D-135] | – | >200.0 and 200 | – | IC50 [1, 10]: 1 µg/mL; IC50 [2, 11]: < 0.005 µg/mL; Selectivity [2]: 200
CCN1/C(=C/C=C/c2oc3ccc(OC)cc3[n+]2CC)Sc2ccccc21.[I-] [Dye D-136] | – | >60.0 and 60 | – | CV (IC50 in the CV-1 cell line) ([1]; colonies after 7-10 days): 0.3 µg/mL; CX (IC50 in the CX-1 cell line) ([2]; colonies after 7-10 days): <0.005 µg/mL
CCN1/C(=C/C(=C/c2oc3ccccc3[n+]2CC)SC)Sc2ccccc21.[I-] [Dye D-137] | – | 100 | – | CV (IC50 in the CV-1 cell line) ([1]; colonies after 7-10 days): 3.0 µg/mL; CX (IC50 in the CX-1 cell line) ([2]; colonies after 7-10 days): 0.03 µg/mL
CCN1/C(=C/C=C/c2oc3ccc(SC)cc3[n+]2C)Sc2ccccc21.[I-] [Dye D-138] | – | >60.0 and 60 | – | CV (IC50 in the CV-1 cell line) ([1]; colonies after 7-10 days): 0.3 µg/mL; CX (IC50 in the CX-1 cell line) ([2]; colonies after 7-10 days): <0.005 µg/mL
CCN1/C(=C(\C=C\c2oc3ccccc3[n+]2CC)c2ccccc2)Sc2ccccc21.[I-] [Dye D-139] | – | 100 | – | CV (IC50 in the CV-1 cell line) ([1]; colonies after 7-10 days): 3.0 µg/mL; CX (IC50 in the CX-1 cell line) ([2]; colonies after 7-10 days): 0.03 µg/mL
CCN1/C(=C/C=C/c2cc3scc([S-])[n+]3c3ccccc23)Oc2ccccc21 [Dye D-141] | < 0.005 µg/mL | 100 | 0.5 µg/mL (≈ 1.24 µM) | –
CCSC(=C\c1oc2ccccc2[n+]1CC)/C=C1\Sc2ccccc2N1CC.[I-] [Dye D-142] | – | – | – | CV (IC50 in the CV-1 cell line) ([1]; colonies after 7-10 days): 0.5 µg/mL; CX (IC50 in the CX-1 cell line) ([2]; colonies after 7-10 days): <0.005 µg/mL
CC[n+]1c(/C=C/C=C2\SCCCN2C)sc2ccccc21 [Dye D-144] | 0.03 µg/mL | 100 | 3 µg/mL | –
CC[n+]1c(/C=C/C=C2\OC=C(c3ccccc3)N2C)sc2ccccc21 [Dye D-145] | < 0.005 µg/mL | 60 | 0.3 µg/mL | –
CCN1/C(=C/C=C/c2sc3c([n+]2C)CCCC3)Sc2ccccc21 [Dye D-146] | ≤ 0.004 µg/mL | 75.0 and 60 | 0.3 µg/mL | –

Further lines, with some results ahead:

IC50 [2, 4] | SMILES | CV/CX (selectivity, kill ratio) [2] | IC50 [1, 3] | also measured
0.03 µg/mL | CCN1/C(=C\C=c2\s/c(=C/c3sc4ccccc4[n+]3CC)n(C)c2=O)Sc2ccccc21 [Dye D-111] | 270 and 266.7 | 8 µg/mL | –
0.05 µg/mL | CCN1/C(=C/C=C/c2sc3cc4ccccc4nc3[n+]2CC)Sc2ccc3ccccc3c21 [Dye D-114] | 60 | 3 µg/mL | –
< 0.005 µg/mL | CC[n+]1c(/C=C/C=C2\Sc3ccccc3N2C(C)C)oc2ccccc21 [Dye D-122] | 80 and >80.0 | 0.4 µg/mL | IC50 [1, 5]: 0.4 µg/mL; IC50 [2, 6]: < 0.005 µg/mL; CV/C [2]: >80.0
0.005 µg/mL | CCN1C=C(c2ccccc2)O/C1=C\C=C\c1sc2ccccc2[n+]1CC [Dye D-123] | 80 | 0.4 µg/mL | IC50 [1, 7]: 0.4 µg/mL; IC50 [2, 8]: 0.005 µg/mL; CV/CX [2, 9]: 80.0
0.1 µg/mL | CC[n+]1c(/C=C/C=C2\Sc3ccccc3N2CC#N)oc2ccccc21 [Dye D-124] | 100 | 10 µg/mL | IC50 [1, 5]: 10 µg/mL; IC50 [2, 6]: 0.1 µg/mL; CV/C [2]: 100.0
0.035 µg/mL | CCN1/C(=C/C=C/c2sc3ccccc3[n+]2CCO)Sc2ccccc21 [Dye D-125] | >91.4 | > 3.2 µg/mL | IC50 ([1]; CV-1, Table XX, thiacarbocyanine nitrogen substituents, CV-1 cells, read-out: CV): > 3.2 µg/mL; IC50 ([2]; CX-1, Table XX, thiacarbocyanine nitrogen substituents, CX-1 cells, read-out: CX): 0.035 µg/mL; CV/CX ([2]; Table XX, ratio given a value of 1 where dye inactive): 91.4
0.05 µg/mL | CCC(/C=C1\Sc2ccc(Cl)cc2N1C)=C\c1oc2ccc(-c3ccccc3)cc2[n+]1C [Dye D-147] | 160 | 8 µg/mL | –
0.09 µg/mL | CCN1/C(=C/C=N/c2sc3ccccc3[n+]2CC)Sc2ccccc21 [Dye D-149] | 77.8 | 7 µg/mL | –
